According to ChEMBL document CHEMBL3994622, “Design and synthesis of new RAF kinase-inhibiting antiproliferative quinoline derivatives. Part 2: Diarylurea derivatives” (Eur J Med Chem, 2017):

Tests used:
Assay type in all cases: functional
[1] = test system: OVCAR-5; assay: Growth inhibition of human OVCAR5 cells assessed as cell growth at 0.3 uM incubated for 48 hrs by sulforhodamine B assay relative to control; conditions: OVCAR-5, 48 h, read-out: Activity
[2] = test system: CAKI-1; assay: Growth inhibition of human Caki1 cells assessed as cell growth at 30 uM incubated for 48 hrs by sulforhodamine B assay relative to control; conditions: CAKI-1, 48 h, read-out: Activity
[3] = test system: CCRF-CEM; assay: Growth inhibition of human CCRF-CEM cells assessed as cell growth at 30 uM incubated for 48 hrs by sulforhodamine B assay relative to control; conditions: read-out: Activity
[4] = test system: M14; assay: Growth inhibition of human M14 cells assessed as cell growth at 0.003 uM incubated for 48 hrs by sulforhodamine B assay relative to control; conditions: M14, 48 h, read-out: Activity
[5] = test system: SNB-19; assay: Growth inhibition of human SNB19 cells assessed as cell growth at 30 uM incubated for 48 hrs by sulforhodamine B assay relative to control; conditions: SNB-19, 48 h, read-out: Activity
[6] = test system: NCI-H460; assay: Growth inhibition of human NCI-H460 cells assessed as cell growth at 30 uM incubated for 48 hrs by sulforhodamine B assay relative to control; conditions: NCI-H460, 48 h, read-out: Activity
[7] = test system: U-251; assay: Growth inhibition of human U251 cells assessed as cell growth at 3 uM incubated for 48 hrs by sulforhodamine B assay relative to control; conditions: U-251, 48 h, read-out: Activity
[8] = test system: U-251; assay: Growth inhibition of human U251 cells assessed as cell growth at 0.03 uM incubated for 48 hrs by sulforhodamine B assay relative to control; conditions: U-251, 48 h, read-out: Activity
[9] = test system: IGROV-1; assay: Growth inhibition of human IGROV1 cells assessed as cell growth at 0.3 uM incubated for 48 hrs by sulforhodamine B assay relative to control; conditions: IGROV-1, 48 h, read-out: Activity
[10] = test system: 786-0; assay: Growth inhibition of human 786-0 cells assessed as cell growth at 0.03 uM incubated for 48 hrs by sulforhodamine B assay relative to control; conditions: 786-0, 48 h, read-out: Activity
[11] = test system: A498; assay: Growth inhibition of human A498 cells assessed as cell growth at 30 uM incubated for 48 hrs by sulforhodamine B assay relative to control; conditions: A498, 48 h, read-out: Activity
[12] = test system: OVCAR-8; assay: Growth inhibition of human OVCAR8 cells assessed as cell growth at 0.03 uM incubated for 48 hrs by sulforhodamine B assay relative to control; conditions: OVCAR-8, 48 h, read-out: Activity
[13] = test system: HT-29; assay: Growth inhibition of human HT-29 cells assessed as cell growth at 3 uM incubated for 48 hrs by sulforhodamine B assay relative to control; conditions: HT-29, 48 h, read-out: Activity
[14] = test system: NCI-H460; assay: Growth inhibition of human NCI-H460 cells assessed as cell growth at 0.3 uM incubated for 48 hrs by sulforhodamine B assay relative to control; conditions: NCI-H460, 48 h, read-out: Activity
[15] = test system: IGROV-1; assay: Growth inhibition of human IGROV1 cells assessed as cell growth at 0.03 uM incubated for 48 hrs by sulforhodamine B assay relative to control; conditions: IGROV-1, 48 h, read-out: Activity
[16] = test system: SF-539; assay: Growth inhibition of human SF539 cells assessed as cell growth at 10 uM incubated for 48 hrs by sulforhodamine B assay relative to control; conditions: SF-539, 48 h, read-out: Activity
[17] = test system: IGROV-1; assay: Growth inhibition of human IGROV1 cells assessed as cell growth at 0.01 uM incubated for 48 hrs by sulforhodamine B assay relative to control; conditions: IGROV-1, 48 h, read-out: Activity
[18] = test system: NCI-H460; assay: Growth inhibition of human NCI-H460 cells assessed as cell growth at 100 uM incubated for 48 hrs by sulforhodamine B assay relative to control; conditions: NCI-H460, 48 h, read-out: Activity
[19] = test system: ACHN; assay: Growth inhibition of human ACHN cells assessed as cell growth at 10 uM incubated for 48 hrs by sulforhodamine B assay relative to control; conditions: read-out: Activity
[20] = test system: MOLT-4; assay: Growth inhibition of human MOLT4 cells assessed as cell growth at 1 uM incubated for 48 hrs by sulforhodamine B assay relative to control; conditions: MOLT-4, 48 h, read-out: Activity
[21] = test system: KM12; assay: Growth inhibition of human KM12 cells assessed as cell growth at 1 uM incubated for 48 hrs by sulforhodamine B assay relative to control; conditions: KM12, 48 h, read-out: Activity
[22] = test system: OVCAR-4; assay: Growth inhibition of human OVCAR4 cells assessed as cell growth at 100 uM incubated for 48 hrs by sulforhodamine B assay relative to control; conditions: OVCAR-4, 48 h, read-out: Activity
[23] = test system: HCC 2998; assay: Growth inhibition of human HCC2998 cells assessed as cell growth at 0.01 uM incubated for 48 hrs by sulforhodamine B assay relative to control; conditions: HCC 2998, 48 h, read-out: Activity
[24] = test system: SR; assay: Growth inhibition of human SR cells assessed as cell growth at 1 uM incubated for 48 hrs by sulforhodamine B assay relative to control; conditions: read-out: Activity
[25] = test system: Malme-3M; assay: Growth inhibition of human MALME-3M cells assessed as cell growth at 0.01 uM incubated for 48 hrs by sulforhodamine B assay relative to control; conditions: read-out: Activity
[26] = test system: Hs-578T; assay: Growth inhibition of human Hs 578T cells assessed as cell growth at 10 uM incubated for 48 hrs by sulforhodamine B assay relative to control; conditions: read-out: Activity
[27] = test system: NCI-H23; assay: Growth inhibition of human NCI-H23 cells assessed as cell growth at 0.1 uM incubated for 48 hrs by sulforhodamine B assay relative to control; conditions: NCI-H23, 48 h, read-out: Activity
[28] = test system: SK-MEL-2; assay: Growth inhibition of human SK-MEL-2 cells assessed as cell growth at 0.1 uM incubated for 48 hrs by sulforhodamine B assay relative to control; conditions: SK-MEL-2, 48 h, read-out: Activity
[29] = test system: NCI-H23; assay: Growth inhibition of human NCI-H23 cells assessed as cell growth at 1 uM incubated for 48 hrs by sulforhodamine B assay relative to control; conditions: NCI-H23, 48 h, read-out: Activity
[30] = test system: SK-MEL-2; assay: Growth inhibition of human SK-MEL-2 cells assessed as cell growth at 1 uM incubated for 48 hrs by sulforhodamine B assay relative to control; conditions: SK-MEL-2, 48 h, read-out: Activity
[31] = test system: A549; assay: Growth inhibition of human A549/ATCC cells assessed as cell growth at 100 uM incubated for 48 hrs by sulforhodamine B assay relative to control; conditions: A549, 48 h, read-out: Activity
[32] = test system: UO-31; assay: Growth inhibition of human UO31 cells assessed as cell growth at 10 uM incubated for 48 hrs by sulforhodamine B assay relative to control; conditions: UO-31, 48 h, read-out: Activity
[33] = test system: LOX IMVI; assay: Growth inhibition of human LOXIMVI cells assessed as cell growth at 100 uM incubated for 48 hrs by sulforhodamine B assay relative to control; conditions: read-out: Activity
[34] = test system: COLO 205; assay: Growth inhibition of human COLO205 cells assessed as cell growth at 1 uM incubated for 48 hrs by sulforhodamine B assay relative to control; conditions: COLO 205, 48 h, read-out: Activity
[35] = test system: NCI-H322M; assay: Growth inhibition of human NCI-H322M cells assessed as cell growth at 10 uM incubated for 48 hrs by sulforhodamine B assay relative to control; conditions: read-out: Activity

| SMILES | growth at 0.3 µM [1] [%] | growth at 30 µM [2] [%] | growth at 30 µM [3] [%] | growth at 0.003 µM [4] [%] | growth at 30 µM [5] [%] | growth at 30 µM [6] [%] | growth at 3 µM [7] [%] | growth at 0.03 µM [8] [%] | growth at 0.3 µM [9] [%] | growth at 0.03 µM [10] [%] | growth at 30 µM [11] [%] | growth at 0.03 µM [12] [%] | growth at 3 µM [13] [%] | growth at 0.3 µM [14] [%] | growth at 0.03 µM [15] [%] | growth at 10 µM [16] [%] | growth at 0.01 µM [17] [%] | growth at 100 µM [18] [%] | growth at 10 µM [19] [%] | growth at 1 µM [20] [%] | other results |
| --- | --- | --- | --- | --- | --- | --- | --- | --- | --- | --- | --- | --- | --- | --- | --- | --- | --- | --- | --- | --- | --- |
| COc1cc2cc(Oc3ccc(NC(=O)Nc4ccc(Cl)c(C(F)(F)F)c4)cc3)c(C)nc2cc1OC | 113 | -55 | -38 | 97 | -87 | -62 | 6 | 97 | 117 | 83 | -98 | 94 | 8 | 100 | 107 | – | – | – | – | – | – |
| COc1cc2cc(Oc3ccc(NC(=O)Nc4ccc(Cl)c(Cl)c4)cc3)c(C)nc2cc1OC | – | – | – | – | – | – | – | – | – | – | – | – | – | – | – | 29 | 110 | -76 | 5 | 90 | growth at 1 µM [21]: 93%; growth at 100 µM [22]: -85%; growth at 0.01 µM [23]: 101%; growth at 1 µM [24]: 98%; growth at 0.01 µM [25]: 102%; growth at 10 µM [26]: -2%; growth at 0.1 µM [27]: 93%; growth at 0.1 µM [28]: 116%; growth at 1 µM [29]: 89%; growth at 1 µM [30]: 121%; growth at 100 µM [31]: -100%; growth at 10 µM [32]: 6%; growth at 100 µM [33]: -100%; growth at 1 µM [34]: 109% |
| COc1cc2cc(Oc3ccc(NC(=O)Nc4cc(C(F)(F)F)cc(C(F)(F)F)c4)cc3)c(C)nc2cc1OC | – | – | – | – | – | – | – | – | – | – | – | – | – | – | – | -72 | 96 | -73 | -57 | 55 | growth at 1 µM [21]: 48%; growth at 10 µM [35]: 14.9%; growth at 100 µM [22]: -52%; growth at 0.01 µM [23]: 99%; growth at 1 µM [24]: 69%; growth at 0.01 µM [25]: 87%; growth at 10 µM [26]: -19%; growth at 0.1 µM [27]: 96%; growth at 0.1 µM [28]: 94%; growth at 1 µM [29]: 39%; growth at 1 µM [30]: 85%; growth at 100 µM [31]: -85%; growth at 10 µM [32]: -70%; growth at 100 µM [33]: -90%; growth at 1 µM [34]: 92% |
| Cc1nc2cc(O)c(O)cc2cc1Oc1ccc(NC(=O)Nc2ccc(Cl)c(Cl)c2)cc1 | 106 | -2 | -16 | 96 | 2 | -44 | 71 | 94 | 103 | 95 | 75 | 93 | 98 | 99 | 104 | – | – | – | – | – | growth at 10 µM [35]: 94% |
